Measurements taken from patent publication US7510704B2, “Cosmetic compositions” (Unilever Home & Personal Care USA division of Conopco, Inc., priority 2001, dated 2009).

Test system: Corynebacterium A sp. NCIMB 40928
Assay: In vitro model of fatty acid catabolism by axillary bacteria (culture viability and remaining fatty acid after 24 h)
Assay type: cell-based
Conditions: for Viability / Fatty acid utilisation: 24 h; for Viability: 35° C.; for Fatty acid utilisation: pentadecanoic acid 2.0 mg/ml
Experimental: This experiment uses the methods of WO 00/01353 to illustrate the much greater efficacy of 4-hydroxy-3-methoxybenzyl alcohol at inhibiting fatty acid catabolism by corynebacteria A, when compared with analogous materials previously disclosed in the aforementioned publication. Data illustrating the sub-lethal aspect of the inhibition are also presented.
An in vitro model system, reproducing fatty acid catabolism by axillary bacteria, was used. To each of several 250 ml baffled shake flasks was added 30 ml semi-synthetic medium (see below), supplemented with fatty acid substrate (2.0 mg/ml pentadecanoic acid) and non-fatty acid substrate (0.5 mg/ml glucose). To each flask (other than the control) was also added one of the indicated test materials, as a 10% (w/v) emulsion in semi-synthetic medium, supplemented with Gum Arabic (5.0 mg/ml). (Emulsions were formed by ultra-homogenisation at 24,000 rpm for about 1 min.) Each of the flasks was inoculated with fresh bacterial biomass (Corynebacterium A sp. NCIMB 40928), pre-grown for 24 h in TSBT (see below), to give starting optical densities (A590) of 1.0-2.0. Following inoculation, the flasks were incubated aerobically at 35° C., with agitation (130 rpm), for 24 hours. After this time, culture viability and remaining fatty acid were determined by methodology as described in […].
Composition of semi-synthetic medium in g/l: KH2PO4 (1.6), (NH4)2HPO4 (5.0), Na2SO4 (0.38), yeast nitrogen base (3.35) (Difco), yeast extract (0.5) (Beta Lab), Tween 80™ (0.2), Triton X-100™ (0.2), and MgCl2.6H2O (0.5).
Composition of TSBT (Tween-supplemented Tryptone soya broth) in g/l: Tryptone soya broth (30.0) (Merck), yeast extract (10.0) (Beta Lab), and Tween 80™ (1.0).
NCIMB 40928 in terms of culture viability and fatty acid utilisation. Various concentrations of active were investigated. It will be noted that for each of the Examples, culture viability was not substantially affected.

Structure (SMILES)	Viability (active conc. 0.1 g/l) [log10CFU/ml]	Fatty acid utilisation (active conc. 0.1 g/l) [%]	Viability (active conc. 0.25 g/l) [log10CFU/ml]	Fatty acid utilisation (active conc. 0.25 g/l) [%]	Viability (active conc. 0.5 g/l) [log10CFU/ml]	Fatty acid utilisation (active conc. 0.5 g/l) [%]	Viability (active conc. 1.0 g/l) [log10CFU/ml]	Fatty acid utilisation (active conc. 1.0 g/l) [%]	Viability (active conc. 5.0 g/l) [log10CFU/ml]	Fatty acid utilisation (active conc. 5.0 g/l) [%]	Viability (active conc. 10.0 g/l) [log10CFU/ml]	Fatty acid utilisation (active conc. 10.0 g/l) [%]	Reduction of the fatty acid catabolism of corynebacteria A (at a concentration of 0.5 mg/ml or less)	Concentration producing sub-lethal inhibition (greater than 50% inhibition of pentadecanoic acid utilisation without reduction in cell viability, ≦1 log10 CFU/ml) (corynebacteria A) [mg/ml]
OCc1ccc(O)cc1 [A, 4-hydroxybenzyl alcohol]	8.69	100	8.85	97	8.17	21								
COc1ccc(CO)cc1O [B, 3-hydroxy-4-methoxybenzyl alcohol]							8.90	99	8.99	86	8.62	29		
COc1cc(CCO)ccc1O [C, 4-hydroxy-3-methoxyphenethyl alcohol]							8.80	99	8.60	59	8.09	26		
COc1cc(CO)ccc1O [Example 1, 4-hydroxy-3-methoxybenzyl alcohol]	8.91	65	8.88	40	8.28	20							greater than 50%	≤ 0.25
